Assay [1] concerns the target T1, (+)-limonene synthase [(+)-LS] (Citrus sinensis, UniProt A0A1C9J6A7). The experiment in a line: X-ray crystal structure. Type of assay: biochemical.
For assay [2], the target named is T1, (+)-limonene synthase [(+)-LS]. The experiment in a line: X-ray crystal structure. In kind it is biochemical. The source holds these as a separate data set.

The values below come from publication PMC5642273 (Biochemistry, 2017).

Like-named read-outs stand apart in the source and are kept apart here.

T1 sequence (A0A1C9J6A7 53-607): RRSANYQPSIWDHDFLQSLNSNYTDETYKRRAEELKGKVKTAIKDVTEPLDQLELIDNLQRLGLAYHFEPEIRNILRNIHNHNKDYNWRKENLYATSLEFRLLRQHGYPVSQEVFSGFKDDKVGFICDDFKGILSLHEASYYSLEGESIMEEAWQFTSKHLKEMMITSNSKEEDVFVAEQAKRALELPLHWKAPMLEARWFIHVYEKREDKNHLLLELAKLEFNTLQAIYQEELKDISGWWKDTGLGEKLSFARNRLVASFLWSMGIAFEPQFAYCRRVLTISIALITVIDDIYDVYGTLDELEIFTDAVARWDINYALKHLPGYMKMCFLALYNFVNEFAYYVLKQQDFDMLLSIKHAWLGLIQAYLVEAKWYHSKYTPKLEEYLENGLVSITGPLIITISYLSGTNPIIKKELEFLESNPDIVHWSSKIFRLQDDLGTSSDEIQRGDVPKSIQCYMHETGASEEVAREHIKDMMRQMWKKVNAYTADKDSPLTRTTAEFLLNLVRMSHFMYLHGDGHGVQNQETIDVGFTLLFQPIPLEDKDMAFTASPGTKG

As for `CC(C)=CCC/C(C)=C(\F)COP(=O)(O)OP(=O)(O)O` [FGPP, 2-fluorogeranyl diphosphate], affinity in assay [1] was put at a Ki of 2.4 ± 0.5 µM. Compound `CC(C)=CCC/C(C)=C(/F)COP(=O)(O)OP(=O)(O)O` [FNPP, 2-fluoroneryl diphosphate] came in with a Ki in assay [2] of 39.5 ± 5.2 µM.
